Experimental data published in a melting point compilation (Tetko et al.; mined from patent text by program, amines drawn as free bases though some values may be those of a salt).

| melting point | SMILES |
| --- | --- |
| 107 to 110 °C | CCCc1nc(C(=O)C(C)(C)C)c(C#N)n1Cc1ccc(-c2ccccc2-c2nnnn2C(c2ccccc2)(c2ccccc2)c2ccccc2)cc1 |
| 275 to 282 °C | Cc1ccnc(Nc2nc(-c3ccc(OC(F)(F)F)cc3)cs2)c1 |
| 187 to 188 °C | NC(=O)N1CC(Oc2ccc(Cl)cc2)C1 |
| 246 to 247 °C | CCNC(=O)Nc1cc(-c2c(-c3ccc(F)c(C)c3)nc3cc(C(C)(C)C)c(Cl)nn23)ccn1 |
| 202 to 204 °C | Cc1oc(-c2ccc(Cl)cc2)cc1C(=O)NCc1ccc2cc(O)ccc2c1 |
| 266 to 268 °C | CCc1cc(OCc2ccc(C(=O)NS(=O)(=O)c3ccccc3C)cc2)c2c(n1)CCCC2 |
| 129 to 133 °C | CCOC(=O)c1cn(C2CCCCC2)c2cc(Br)ccc2c1=O |
| 126 to 127 °C | Cn1c(CO)ccc1S(=O)(=O)N1CCC(CCO)(Sc2cc(C(C)(C)C)c(O)c(C(C)(C)C)c2)CC1 |
| > 260 °C | O=C(NC12CC3CC(CC(C3)C1)C2)n1cc(F)c(=O)[nH]c1=O |
| 181 °C | Nc1ccc(OCOc2ccc(N)cc2[N+](=O)[O-])c([N+](=O)[O-])c1 |
| 113 to 116 °C | COC(=O)CC(=O)c1ncccc1Cl |
| 153 to 154 °C | COc1cc(C2CCN(C(=O)OC(C)(C)C)CC2)cnc1COc1ccc(S(C)(=O)=O)cc1 |
| 139 to 141 °C | CCCCC(CC)C(=O)Nc1ccc2ccn(Cc3ccc(C(=O)OC)cc3)c2c1 (stereo not given) |
| 82 °C | CCOP(=O)(OCC)C(c1ccccc1)N(CCCl)C(N)=O (stereo not given) |
| 193 to 194 °C | Cc1cc(C2CCN(S(=O)(=O)C3(C(=O)NO)CCOCC3)CC2)ccc1-c1cccc(OCCO)n1 |
| 117 to 118 °C | O=C(O)CCc1cc(Br)c2c(c1)CCO2 |
| 185 to 186 °C | CCOc1cc(Cc2cnc(N)nc2N)cc2c1OC(C)(C)C=C2c1cccc(F)c1 |
| 73 to 75 °C | CCCc1c(OCCCSc2ccc(C(=O)CCCO)cc2)ccc(C(C)=O)c1O |

| melting point | SMILES |
| --- | --- |
| 196 to 201 °C | Cc1c(NC(=O)c2cccnc2NCc2ccc(=O)[nH]c2)cccc1C(F)(F)F |
| 190 to 192 °C | CCOCc1nc2c(N)nc3cc(OCCCCCCNC(C)=O)ccc3c2n1CC(C)(C)NC(C)=O |
| 179 °C | O=C(NO)c1cccnc1Cl |
| 140 to 142 °C | O=C1CCC(N2C(=O)c3ccccc3C2=O)CC1 |
| 35 to 39 °C | C=CCC(O)c1ccc2ccccc2c1 (stereo not given) |
| 121 to 122 °C | CCOC(=O)n1c(=O)n(CCN2CCN(c3ccccc3OC)CC2)c(=O)c2sccc21 |
| 105 to 108 °C | CC(C)c1cc(C(C)C)c(OCC(=O)O)c(C(C)C)c1 |
| 275 to 277 °C | c1ccc(CN(Cc2ccccc2)c2cccc3c2ncc2nc4n(c23)CCC4)cc1 |
| 107 to 108 °C | CC(C)C(=O)CNC(=O)c1ccc(F)cc1 |
| 131 to 133 °C | CN(CC(=O)NO)C(=O)[C@H]1CCCC[C@H]1C(=O)O (relative stereo) |
| 218 to 221 °C | Cc1c(-c2ccncc2)[nH]c(-c2ccncc2)c1C(=O)OC(C)C |
| 144 to 145 °C | CSC(Oc1cc2cc(Br)cnc2cc1F)C(=O)NC(C)(C)C (stereo not given) |
| 110 to 120 °C | NCC(=O)N1CCN(C(=O)c2cc(C(F)(F)F)cc(C(F)(F)F)c2)[C@H](Cc2c[nH]c3ccccc23)C1 |
| 125 to 127 °C | COc1ccc(-n2nc(C(=O)CCCO)cc2-c2ccc(S(C)(=O)=O)cc2)cc1 |
| 134 to 136 °C | Cc1cc(Cn2cc(C(F)(F)C(F)(F)F)c(C(F)(F)C(F)(F)F)n2)ccc1NC(=O)c1cccc(Br)c1C(=O)N[C@@H](C)CS(C)(=O)=O |
| 178 to 180 °C | CS(=O)(=O)N1CCN(C(=N)Nc2ccccc2-c2ccccc2)CC1 |
| 176 to 177 °C | CCn1c(=S)c2[nH]c(C(C)C)nc2n(Cc2ccc(OC)c(OC3CCCC3)c2)c1=O |

The remaining lines, values behind:

| SMILES | melting point |
| --- | --- |
| COc1cc(C(=O)NS(=O)(=O)c2ccccc2C)ccc1Cc1c[nH]c2ccc(NC(=O)CC3CCCC3)cc12 | 248 to 250 °C |
| CC(C)c1cc(C(C)C)c(CC(=O)NS(=O)(=O)Oc2c(C(C)C)cc(SC#N)cc2C(C)C)c(C(C)C)c1 | 164 to 165 °C |
| CC(=O)c1ccc(OCC(C)(O)C(=O)Nc2ccc([N+](=O)[O-])c(C)c2)cc1 (stereo not given) | 153 to 155 °C |
| COC(=O)c1ccc(OC(=O)c2ccc(C(=O)Oc3ccc(C(=O)OC)cc3)cc2)cc1 | 243 to 245 °C |
| CCOC(=O)CNC(=O)[C@@H]1CS[C@H](c2ccccc2O)N1C(=O)CCSC(C)=O | 130 to 131 °C |
| CS(=O)(=O)c1ccc(-c2[nH]c3ccc(Br)cc3c2-c2ccccc2)cc1 | 262 to 264 °C |
| CCOC(=O)[C@H]1[C@@H]2CC(=O)[C@@](N=[N+]=[N-])(C(=O)OCc3ccccc3)[C@@H]21 | 46 to 48 °C |
| O=C1C2=C(CCCC2)C(=O)N1c1ccc(F)cc1F | 73 to 74 °C |
| COCNC(=O)OC(C(=O)OC)P(C)(C)=O (stereo not given) | 101 °C |
| Cc1c(Cc2cccc(C(F)(F)F)c2)sc2c(-c3cc(F)cc(C(=O)NCC(N)=O)c3)cccc12 | 46 to 47 °C |
| O=C1C[C@@H]2[C@@H](/C=C/C(=O)[C@@H]3OCc4ccccc4O3)[C@H](OC(=O)c3ccccc3)C[C@@H]2O1 | 129 to 130 °C |
| CN(C)CCN(C)C(=O)Cc1ccc(NC(=O)c2ccc(-c3ccccc3)cc2)cc1 | 135 to 136 °C |
| Fc1ccc(-c2cc(Br)sc2-c2ccc(F)cc2)cc1 | 91 to 93 °C |
| Cc1nc2sc(S(N)(=O)=O)cc2c(=O)n1-c1ccccc1Cl | 251 °C |
| COC(=O)C1=C(C)NC(C)=C(P(=O)(OC(C)C)OC(C)C)C1c1cccc([N+](=O)[O-])c1 (stereo not given) | 205 to 207 °C |
| Cc1cc(-c2csc(-c3ccc(C(=O)O)cc3)n2)c(C)o1 | 264 to 265 °C |
| O=C(Nc1ccc(OC(F)(F)F)cc1)N1CCOC(c2ccc(Br)s2)=N1 | 139 to 140 °C |
| COc1cc(O)c2c(=O)c(OC)c(-c3ccc(OCc4ccccc4)c(OC)c3)oc2c1 | 156 to 157 °C |
| Cc1ccc(C(=O)OCC2OC(n3cc(C#C[Si](C)(C)C)c(=O)[nH]c3=O)CC2F)cc1 (stereo not given) | 130 °C |
| CC12CCC(Oc3c(F)c(F)c(C(F)(F)F)c(F)c3F)=CC1=CCC1C2CCC2(C)C(c3cccnc3)=CCC12 (stereo not given) | 166 °C |
| CC(C)Oc1nc2cc(-n3ccc(=O)cc3)c([N+](=O)[O-])cc2nc1OC(C)C | 217 to 219 °C |
| O=C1C(=O)c2ccc(-c3ccncc3)cc2C2=C1SCC1(CCN(C(=O)c3cccc(Cl)c3)CC1)O2 | 265 to 267 °C |
| COC(=O)NNC(=S)Cc1ccc(C(C)(C)C)cc1 | 93.5 to 94 °C |
| O=C1c2c(Cl)cccc2-n2cnc(-c3nc(C4CCCC4)no3)c2[C@@H]2CCCN12 | 177 to 178 °C |
| Cc1cccc(C(=O)CCSC(=S)Nc2ccc(Cl)cn2)c1 | 153 °C |
| O=C(O)COc1ccc2cc(-c3ccc(-c4ccccc4)n3Cc3ccccc3)ccc2c1 | 171 to 172 °C |
| O=C(Nc1ccc(N2CCS(=O)(=O)CC2)c(C(F)(F)F)c1)c1cccc2cc(Oc3cc(NC(=O)C4CC4)ncn3)ccc12 | 195 to 205 °C |
| CC(=O)Nc1cccc(C2=NNC(=O)C3CC23)c1 (stereo not given) | 200 to 202 °C |
| COc1ccc2c(C3=CCNCC3)c[nH]c2c1 | 193 to 194 °C |
| Cc1c(/C=C2\COc3ccccc3C2=O)ncn1C(c1ccccc1)(c1ccccc1)c1ccccc1 | 231 to 233 °C |
